Source: PubChem BioAssay AID248 (DTP/NCI, 2004)
Values joined by “and” are separate entries in the source; they are usually repeats but may differ in a detail not shown here. Identical values can stand only once. Inconclusive results and toxic doses are left out.

Tested on: L1210 leukemia ip in BDF1 mice, survival T/C
Test: NCI In Vivo Anticancer Drug Screen. Data for tumor model L1210 Leukemia (intraperitoneal) in B6D2F1 (BDF1) mice
Details: endpoint: mean survival time, higher = longer survival
Summary of the method: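 Survival endpoint. Drug-treated group vs vehicle group, expressed as T divided by C. Tumor passaged by transplantation.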

[1] = dose: 25.0 mg/kg/injection, schedule: Q04DX002 (ip), vehicle: Klucel (hydroxypropylcellulose) (HPC)
[2] = dose: 50.0 mg/kg/injection, schedule: Q04DX002 (ip), vehicle: Klucel (hydroxypropylcellulose) (HPC)
[3] = dose: 100.0 mg/kg/injection, schedule: Q04DX002 (ip), vehicle: Klucel (hydroxypropylcellulose) (HPC)
[4] = dose: 100.0 mg/kg/injection, schedule: Q01DX009 (ip), vehicle: acetone
[5] = dose: 200.0 mg/kg/injection, schedule: Q01DX009 (ip), vehicle: acetone
[6] = dose: 100.0 mg/kg/injection, schedule: Q04DX003 (ip), vehicle: Klucel (hydroxypropylcellulose) (HPC)
[7] = dose: 200.0 mg/kg/injection, schedule: Q04DX003 (ip), vehicle: Klucel (hydroxypropylcellulose) (HPC)
[8] = dose: 400.0 mg/kg/injection, schedule: Q04DX003 (ip), vehicle: Klucel (hydroxypropylcellulose) (HPC)
[9] = dose: 100.0 mg/kg/injection, schedule: Q04DX002 (ip), vehicle: saline with Tween-80
[10] = dose: 200.0 mg/kg/injection, schedule: Q04DX002 (ip), vehicle: saline with Tween-80
[11] = dose: 400.0 mg/kg/injection, schedule: Q04DX002 (ip), vehicle: saline with Tween-80
[12] = dose: 100.0 mg/kg/injection, schedule: Q01DX009 (ip), vehicle: Klucel (hydroxypropylcellulose) (HPC)
[13] = dose: 200.0 mg/kg/injection, schedule: Q01DX009 (ip), vehicle: Klucel (hydroxypropylcellulose) (HPC)

## C=C1CC2(CCC3(CC2)CC(=C)C(=O)O3)OC1=O (stereo not given)
dose: 12.5 mg/kg/injection, schedule: Q04DX003 (ip), vehicle: saline
  T/C: 102 % of control
dose: 25.0 mg/kg/injection, schedule: Q04DX003 (ip), vehicle: saline
  T/C: 116 % of control
dose: 50.0 mg/kg/injection, schedule: Q04DX003 (ip), vehicle: saline
  T/C: 119 % of control

## CCN(CC#CCOc1ccc(Cl)cc1)c1ccccc1
[1]
  T/C: 99 % of control
[2]
  T/C: 93 % of control
[3]
  T/C: 93 % of control

## CCOc1ccccc1C1CCCCC1OS(=O)(=O)c1ccc(C)cc1 (stereo not given)
dose: 50.0 mg/kg/injection, schedule: Q01DX009 (ip), vehicle: acetone
  T/C: 92 % of control
[4]
  T/C: 94 % of control and 92 % of control
[5]
  T/C: 105 % of control and 90 % of control

## Nc1c(Br)cc(F)cc1[N+](=O)[O-]
[6]
  T/C: 97 % of control
[7]
  T/C: 96 % of control
[8]
  T/C: 96 % of control

## O=C(OCc1ccccc1CN1CCCCC1)c1ccccc1
[1]
  T/C: 97 % of control
[2]
  T/C: 101 % of control
[3]
  T/C: 97 % of control

## O=[N+]([O-])c1ccc2nocc2c1
[6]
  T/C: 95 % of control

## COc1ccc(/C=C2/CCOC2=O)cc1
dose: 12.5 mg/kg/injection, schedule: Q04DX002 (ip), vehicle: Klucel (hydroxypropylcellulose) (HPC)
  T/C: 99 % of control

## O=P(CCc1ccccc1)(OCCCl)OCCCl
[9]
  T/C: 99 % of control
[10]
  T/C: 96 % of control
[11]
  T/C: 92 % of control

## COc1ccc2ccc(OC)c(C=O)c2c1
dose: 75.0 mg/kg/injection, schedule: Q01DX009 (ip), vehicle: Klucel (hydroxypropylcellulose) (HPC)
  T/C: 98 % of control
dose: 150.0 mg/kg/injection, schedule: Q01DX009 (ip), vehicle: Klucel (hydroxypropylcellulose) (HPC)
  T/C: 101 % of control
dose: 300.0 mg/kg/injection, schedule: Q01DX009 (ip), vehicle: Klucel (hydroxypropylcellulose) (HPC)
  T/C: 98 % of control

## COC(=O)C1(C(=O)OC)C=CCCC1=O
[6]
  T/C: 108 % of control
[7]
  T/C: 107 % of control
[8]
  T/C: 96 % of control

## CN(N=O)C(=O)NCCSc1nc2ncncc2[nH]1
dose: 31.0 mg/kg/injection, schedule: Q01DX001 (ip), vehicle: carboxymethylcellulose (CMC)
  T/C: 87 % of control
dose: 62.0 mg/kg/injection, schedule: Q01DX001 (ip), vehicle: carboxymethylcellulose (CMC)
  T/C: 103 % of control
dose: 93.0 mg/kg/injection, schedule: Q01DX001 (ip), vehicle: carboxymethylcellulose (CMC)
  T/C: 106 % of control
dose: 187.0 mg/kg/injection, schedule: Q01DX001 (ip), vehicle: carboxymethylcellulose (CMC)
  T/C: 103 % of control
dose: 250.0 mg/kg/injection, schedule: Q01DX001 (ip), vehicle: carboxymethylcellulose (CMC)
  T/C: 103 % of control
dose: 500.0 mg/kg/injection, schedule: Q01DX001 (ip), vehicle: carboxymethylcellulose (CMC)
  T/C: 115 % of control
dose: 750.0 mg/kg/injection, schedule: Q01DX001 (ip), vehicle: carboxymethylcellulose (CMC)
  T/C: 123 % of control
dose: 1000.0 mg/kg/injection, schedule: Q01DX001 (ip), vehicle: carboxymethylcellulose (CMC)
  T/C: 117 % of control

## CCOC(=O)/C(C#N)=C\c1ccccc1Cl
dose: 50.0 mg/kg/injection, schedule: Q01DX009 (ip), vehicle: Klucel (hydroxypropylcellulose) (HPC)
  T/C: 98 % of control
[12]
  T/C: 95 % of control
[6]
  T/C: 91 % of control
[13]
  T/C: 100 % of control
[7]
  T/C: 99 % of control

## CCOC(=O)Nc1cc(NC(c2ccccc2)c2ccccc2)c2[nH]cnc2n1
dose: 4.0 mg/kg/injection, schedule: Q01DX009 (ip), vehicle: other
  T/C: 92 % of control
dose: 5.0 mg/kg/injection, schedule: Q01DX001 (ip), vehicle: other
  T/C: 104 % of control
dose: 7.0 mg/kg/injection, schedule: Q01DX009 (ip), vehicle: other
  T/C: 93 % of control
dose: 9.0 mg/kg/injection, schedule: Q01DX009 (ip), vehicle: other
  T/C: 95 % of control
dose: 9.0 mg/kg/injection, schedule: Q01DX009 (ip), vehicle: steriod suspending solution
  T/C: 97 % of control
dose: 10.0 mg/kg/injection, schedule: Q01DX001 (ip), vehicle: other
  T/C: 102 % of control
dose: 12.0 mg/kg/injection, schedule: Q01DX009 (ip), vehicle: other
  T/C: 92 % of control
dose: 13.0 mg/kg/injection, schedule: Q01DX009 (ip), vehicle: other
  T/C: 95 % of control
dose: 13.0 mg/kg/injection, schedule: Q01DX009 (ip), vehicle: steriod suspending solution
  T/C: 97 % of control
dose: 18.0 mg/kg/injection, schedule: Q01DX001 (ip), vehicle: steriod suspending solution
  T/C: 98 % of control
dose: 20.0 mg/kg/injection, schedule: Q01DX001 (ip), vehicle: other
  T/C: 100 % of control and 106 % of control
dose: 20.0 mg/kg/injection, schedule: Q01DX009 (ip), vehicle: other
  T/C: 95 % of control and 112 % of control
dose: 20.0 mg/kg/injection, schedule: Q01DX009 (ip), vehicle: steriod suspending solution
  T/C: 103 % of control
dose: 26.0 mg/kg/injection, schedule: Q01DX001 (ip), vehicle: steriod suspending solution
  T/C: 100 % of control
dose: 30.0 mg/kg/injection, schedule: Q01DX001 (ip), vehicle: other
  T/C: 119 % of control
dose: 30.0 mg/kg/injection, schedule: Q01DX009 (ip), vehicle: other
  T/C: 105 % of control
dose: 30.0 mg/kg/injection, schedule: Q01DX009 (ip), vehicle: steriod suspending solution
  T/C: 124 % of control
dose: 40.0 mg/kg/injection, schedule: Q01DX001 (ip), vehicle: other
  T/C: 164 % of control
dose: 40.0 mg/kg/injection, schedule: Q01DX001 (ip), vehicle: steriod suspending solution
  T/C: 105 % of control
dose: 50.0 mg/kg/injection, schedule: Q01DX001 (ip), vehicle: other
  T/C: 155 % of control
dose: 60.0 mg/kg/injection, schedule: Q01DX001 (ip), vehicle: other
  T/C: 119 % of control
dose: 60.0 mg/kg/injection, schedule: Q01DX001 (ip), vehicle: steriod suspending solution
  T/C: 111 % of control
dose: 80.0 mg/kg/injection, schedule: Q01DX001 (ip), vehicle: other
  T/C: 107 % of control
dose: 100.0 mg/kg/injection, schedule: Q01DX001 (ip), vehicle: other
  T/C: 107 % of control

## Cc1cc(C)c(NC(=O)c2cccc(C(=O)Nc3c(C)cc(C)cc3C)c2)c(C)c1
[12]
  T/C: 102 % of control
[6]
  T/C: 91 % of control
[13]
  T/C: 104 % of control
[7]
  T/C: 88 % of control
dose: 400.0 mg/kg/injection, schedule: Q01DX009 (ip), vehicle: Klucel (hydroxypropylcellulose) (HPC)
  T/C: 96 % of control
[8]
  T/C: 88 % of control

## N#CSCN1C(=O)C2CC=CCC2C1=O (stereo not given)
dose: 25.0 mg/kg/injection, schedule: Q04DX003 (ip), vehicle: saline with Tween-80
  T/C: 97 % of control

## CCCCC(CC)COP(=S)(S)OCC(CC)CCCC.[Sn] (stereo not given)
[6]
  T/C: 100 % of control
[7]
  T/C: 99 % of control
[8]
  T/C: 96 % of control

## O=c1[nH]cc(/C=N/O)c(=O)[nH]1
dose: 100.0 mg/kg/injection, schedule: Q01DX001 (ip), vehicle: carboxymethylcellulose (CMC)
  T/C: 106 % of control
dose: 200.0 mg/kg/injection, schedule: Q01DX001 (ip), vehicle: carboxymethylcellulose (CMC)
  T/C: 106 % of control
dose: 400.0 mg/kg/injection, schedule: Q01DX001 (ip), vehicle: carboxymethylcellulose (CMC)
  T/C: 101 % of control

## C/C(=N/NC(=O)CC#N)c1ccccc1
[9]
  T/C: 101 % of control
[10]
  T/C: 104 % of control
[11]
  T/C: 95 % of control

## O=C(O)c1ccc(S(=O)(=O)O)cc1
dose: 100.0 mg/kg/injection, schedule: Q01DX009 (ip), vehicle: saline
  T/C: 100 % of control
dose: 200.0 mg/kg/injection, schedule: Q01DX009 (ip), vehicle: saline
  T/C: 97 % of control
dose: 400.0 mg/kg/injection, schedule: Q01DX009 (ip), vehicle: saline
  T/C: 101 % of control

## O=[N+]([O-])c1ccccc1C(=Nc1ccccc1)c1c(O)cc(O)cc1O
[4]
  T/C: 94 % of control
dose: 100.0 mg/kg/injection, schedule: Q04DX003 (ip), vehicle: saline
  T/C: 96 % of control
[5]
  T/C: 100 % of control
dose: 200.0 mg/kg/injection, schedule: Q04DX003 (ip), vehicle: saline
  T/C: 101 % of control
dose: 400.0 mg/kg/injection, schedule: Q04DX003 (ip), vehicle: saline
  T/C: 98 % of control

## NCC1CC2CCC1CC2 (stereo not given)
dose: 12.5 mg/kg/injection, schedule: Q01DX009 (ip), vehicle: alcohol
  T/C: 106 % of control
dose: 25.0 mg/kg/injection, schedule: Q01DX009 (ip), vehicle: alcohol
  T/C: 101 % of control
dose: 50.0 mg/kg/injection, schedule: Q01DX009 (ip), vehicle: alcohol
  T/C: 106 % of control
